# Measured values taken from patent US5846525A, “Protected biopolymers for oral administration and methods of using same” (Trega Biosciences, Inc., priority 1995, dated 1998).
# Values joined by “and” are separate entries in the source; they are usually repeats but may differ in a detail not shown here. Equal values may be shown once.
# Columns and labels:
# [1] = Binding of CRA-1 to Amberlite IRP-64 cation exchange resin (HPLC of filtrate); assay type: physicochemical
# Protocol: A 1 mg/ml CRA-1 solution was prepared by dissolving 42.5 mg CRA-1 in 42.5 ml PBS. Fifty mg Amberlite® IRP-64 ("IRP-64") (Rohm and Haas) was added to 5 ml CRA-1 solution (5 mg CRA-1) to achieve a peptide:resin ratio of 1:10. The mixture was adjusted to pH 6.0 and stirred for 1 hr. The suspension was filtered and the filtrate was analyzed by HPLC (see Example II.A) to determine the total amount of CRA-1 bound to IRP-64. Binding also was performed using CRA-1: IRP-64 ratios of 1:1, 1:2 and 1:20.
# trypsin [2] = biological target: T1, trypsin (Bos taurus, UniProt P00760); test: Susceptibility of free peptide to enzymatic degradation by trypsin; assay type: in vitro ADME; details: 37° C.
# T1 construct: gene PRSS1
# T1 sequence (P00760 24-246): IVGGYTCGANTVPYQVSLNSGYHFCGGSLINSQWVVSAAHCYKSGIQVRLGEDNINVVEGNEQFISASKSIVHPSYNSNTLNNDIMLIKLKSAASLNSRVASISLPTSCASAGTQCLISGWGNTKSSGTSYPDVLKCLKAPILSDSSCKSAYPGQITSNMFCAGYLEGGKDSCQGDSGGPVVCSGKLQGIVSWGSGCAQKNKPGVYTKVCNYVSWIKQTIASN
# Protocol: (§1) Phosphate buffered saline (PBS) solutions were prepared and adjusted to pH 5.0, 7.0 or 8.0. CRA-1 was dissolved into each of the PBS solutions to a final concentration of 3 mg/ml. Samples of 3 mg/ml trypsin and 3 mg/ml chymotrypsin also were prepared in PBS at pH 5.0, 7.0 or 8.0.
# (§2) To examine the susceptibility of CRA-1 to trypsin and chymotrypsin, 1 ml CRA-1 solution at pH 5.0 was mixed with 1 ml trypsin solution at pH 5.0 and 1 ml PBS (pH 5.0) to obtain a final concentration of 1 mg/ml CRA-1 and 1 mg/ml trypsin. Similar assay samples were prepared to examine the stability of CPA-1 in trypsin at pH 7.0 or pH 8.0 and in chymotrypsin at pH 5.0, 7.0 or 8.0. As a control, an assay sample was prepared without trypsin or chymotrypsin.
# (§3) Immediately upon preparing an assay sample, 100 μl of the incubation mixture was removed and the reaction was terminated by adding 100 μl of a Stop solution (90% acetonitrile containing 0.1% trifluoroacetic acid). These samples were analyzed by HPLC to determine the amount of CRA-1 present in each sample at the initiation of the reaction.
# (§4) The remainder of each assay sample was incubated in an oven at 37° C. At selected times after beginning the incubation, a 100 μl aliquot was withdrawn, the reaction was terminated as described above. The samples were analyzed by HPLC to determine the amount of intact CRA-1.
# chymotrypsin [3] = biological target: T2, chymotrypsin (Bos taurus, UniProt P00766); test: Susceptibility of free peptide to enzymatic degradation by chymotrypsin; assay type: in vitro ADME; details: 37° C.
# Protocol: as §1, §2, §3, §4
# [4] = Binding of CRA-1 to Amberlite IRP-69 cation exchange resin (HPLC of filtrate); assay type: physicochemical
# Protocol: CRA-1, which has the amino acid sequence Ac-Nle-Gln-His-(D)Phe-Arg-(D)Trp-Gly-NH2, was prepared as described in U.S. Pat. No. 5,420,109, where it is referred to as "EX-2." A 1 mg/ml solution of peptide CRA-1 was prepared by dissolving 19.7 mg CRA-1 in 19.7 ml PBS. Ten mg Amberlite® IRP-69 ("IRP-69") (Rohm and Haas) was added to 5 ml CRA-1 solution (5 mg CRA-1) to achieve a CRA-1:IRP-69 ratio of 1:2. The mixture was adjusted to pH 6.0 and stirred for 2 hr. The suspension then was filtered and the filtrate was analyzed by HPLC (see Example II.A) to determine the total amount of CRA-1 bound to IRP-69. Binding also was performed using CRA-1:IRP-69 ratios of 1:20 and 1:200.
# trypsin [5] = tested on: T3, trypsin; test: Stability of peptide-ion exchange resin complex to enzymatic degradation by trypsin; assay type: in vitro ADME; details: isolated enzyme trypsin, pH 7, unbound control, read-out: CRA-1 remaining
# T3 construct: gene PRSS1
# Protocol: (§5) Fifty mg or 100 mg of the complex was suspended in 5 ml of PBS (pH 7.0) containing either 1 mg/ml trypsin or 1 mg/ml chymotrypsin. The suspensions were rotated at 200 rpm in an incubator at 37° C. for 2 hr. Following incubation, the suspension was vacuum-filtered and the filtrate was analyzed by HPLC to determine the amount of CRA-1 bound to the IRP-64. […] After 1 hr, the suspension was vacuum-[…] ion exchange resin was washed and filtered a second time with 50 ml 2M KCl. The filtrate and wash were analyzed by HPLC to determine the amount of drug recovered from the ion exchange resin.
# trypsin [6] = biological target: T1, trypsin; test: as above; assay type: in vitro ADME; details: unbound control
# Protocol: as §5
# chymotrypsin [7] = test: Stability of peptide-ion exchange resin complex to enzymatic degradation by chymotrypsin; assay type: in vitro ADME; details: isolated enzyme chymotrypsin, pH 7, unbound control, read-out: CRA-1 remaining
# Protocol: as §5
# chymotrypsin [8] = biological target: T2, chymotrypsin; test: as above; assay type: in vitro ADME; details: unbound control
# Protocol: as §5
compound,measurement,setting,value
"CCCC[C@H](NC(C)=O)C(=O)N[C@@H](CCC(N)=O)C(=O)N[C@@H](Cc1c[nH]cn1)C(=O)N[C@H](Cc1ccccc1)C(=O)N[C@@H](CCCNC(=N)N)C(=O)N[C@H](Cc1c[nH]c2ccccc12)C(=O)NCC(N)=O [CRA-1, Ac-Nle-Gln-His-(D)Phe-Arg-(D)Trp-Gly-NH2]",CRA-1 bound to ion exchange resin,"[1]; IRP-64, peptide:resin ratio 1:1, PBS pH 6.0, stirred 1 hr",10.48%
same,CRA-1 bound to ion exchange resin,"[1]; IRP-64, peptide:resin ratio 1:2, PBS pH 6.0, stirred 1 hr",20.08%
same,CRA-1 bound to ion exchange resin,"[1]; IRP-64, peptide:resin ratio 1:10, PBS pH 6.0, stirred 1 hr",97.55%
same,CRA-1 bound to ion exchange resin,"[1]; IRP-64, peptide:resin ratio 1:20, PBS pH 6.0, stirred 1 hr",98.97%
same,stability in the presence of trypsin,"trypsin [2]; pH 5.0, 1 mg/ml CRA-1, 1 mg/ml trypsin",stable
same,half-life of degradation by trypsin,"trypsin [2]; pH 7.0 or 8.0, 1 mg/ml CRA-1, 1 mg/ml trypsin",20 to 30 min
same,stability in the presence of chymotrypsin,"chymotrypsin [3]; pH 5.0, 1 mg/ml CRA-1, 1 mg/ml chymotrypsin",stable
same,half-life of degradation by chymotrypsin,"chymotrypsin [3]; pH 7.0 or 8.0, 1 mg/ml CRA-1, 1 mg/ml chymotrypsin",20 to 30 min
same,CRA-1 bound to ion exchange resin,"[4]; IRP-69, peptide:resin ratio 1:2, PBS pH 6.0, stirred 2 hr",66.91%
same,CRA-1 bound to ion exchange resin,"[4]; IRP-69, peptide:resin ratio 1:20, PBS pH 6.0, stirred 2 hr",99.63%
same,CRA-1 bound to ion exchange resin,"[4]; IRP-69, peptide:resin ratio 1:200, PBS pH 6.0, stirred 2 hr",99.5% and 99.52%
same,remaining at 2 h,trypsin [5],2.96%
same,CRA-1 remaining,trypsin [6],almost completely degraded
same,remaining at 2 h,chymotrypsin [7],5.47%
same,CRA-1 remaining,chymotrypsin [8],almost completely degraded
